What was measured:
Type in all cases: cell-based
[1] = biological target: T1, NK3 (Homo sapiens, UniProt P29371); experiment: Signal transduction (ST), intracellular Ca++ (FLIPR), NK3; conditions: antagonist, read-out: NK3 pIC50 (converted)
T1 sequence (P29371 1-465): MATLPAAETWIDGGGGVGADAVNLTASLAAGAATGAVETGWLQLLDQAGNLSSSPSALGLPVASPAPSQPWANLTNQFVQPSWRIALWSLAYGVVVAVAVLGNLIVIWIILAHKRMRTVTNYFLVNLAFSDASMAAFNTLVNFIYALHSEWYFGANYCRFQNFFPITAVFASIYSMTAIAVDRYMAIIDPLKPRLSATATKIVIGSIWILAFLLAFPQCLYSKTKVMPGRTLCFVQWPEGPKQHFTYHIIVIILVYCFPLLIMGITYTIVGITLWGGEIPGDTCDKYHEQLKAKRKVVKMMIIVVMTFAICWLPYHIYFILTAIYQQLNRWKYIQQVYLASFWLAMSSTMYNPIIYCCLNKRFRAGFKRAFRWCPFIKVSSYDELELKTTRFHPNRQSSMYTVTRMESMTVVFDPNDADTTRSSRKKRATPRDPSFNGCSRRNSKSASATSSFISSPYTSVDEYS
Method: [The source words this procedure for another target and reports this target under the same test.] (§1) This test evaluates in vitro functional NK1 antagonistic activity. For the measurements of intracellular Ca^++ concentrations the cells were grown on 96-well (black wall/transparent bottom) plates from Costar for 2 days until they reached confluence. The cells were loaded with 2 μM Fluo3 in DMEM containing 0.1% BSA and 2.5 mM probenecid for 1 h at 37° C. They were washed 3× with a Krebs buffer (140 mM NaCl, 1 mM MgCl2×6H2O, 5 mM KCl, 10 mM glucose, 5 mM HEPES; 1.25 mM CaCl2; pH 7.4) containing 2.5 mM probenecid and 0.1% BSA (Ca^++-buffer). The cells were preincubated with a concentration range of antagonists for 20 min at RT and Ca^++-signals after addition of the agonists were measured in a Fluorescence Image Plate Reader (FLIPR from Molecular Devices, Crawley, England). The peak of the Ca^++-transient was considered as the relevant signal and the mean values of corresponding wells were analysed as described below.
(§2) The sigmoidal dose response curves were analysed by computerised curve-fitting, using the GraphPad Program. The EC50-value of a compound is the effective dose showing 50% of maximal effect. For mean curves the response to the agonist with the highest potency was normalised to 100%. For antagonist responses the IC50-value was calculated using non-linear regression.
(§3) The last columns indicate—without being limited thereto—for which action the compounds might be most suitable. Of course, since for some neurokinin receptors no data was determined, it is obvious that these compounds might be attributed to another suitable use.

[2] = biological target: NK1 (Homo sapiens, UniProt P25103); experiment: Signal transduction (ST), intracellular Ca++ (FLIPR), functional NK1 antagonistic activity; conditions: antagonist, read-out: NK1 pIC50 (converted)
Chain of NK1 (P25103 whole entry): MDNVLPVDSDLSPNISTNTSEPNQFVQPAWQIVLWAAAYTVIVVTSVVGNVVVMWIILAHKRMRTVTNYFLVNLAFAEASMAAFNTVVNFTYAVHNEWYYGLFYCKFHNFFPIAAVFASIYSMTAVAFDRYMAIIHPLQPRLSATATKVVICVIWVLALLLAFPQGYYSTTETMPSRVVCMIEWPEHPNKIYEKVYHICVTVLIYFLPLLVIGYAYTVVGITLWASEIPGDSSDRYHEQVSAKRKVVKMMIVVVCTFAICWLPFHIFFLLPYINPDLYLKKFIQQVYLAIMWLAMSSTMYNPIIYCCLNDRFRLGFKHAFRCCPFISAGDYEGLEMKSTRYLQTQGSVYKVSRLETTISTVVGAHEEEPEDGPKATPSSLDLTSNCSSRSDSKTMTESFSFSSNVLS
Method: as §1, §2, §3

[3] = biological target: T2, NK2 (Homo sapiens, UniProt P21452); experiment: Signal transduction (ST), intracellular Ca++ (FLIPR), NK2; conditions: antagonist, read-out: NK2 pIC50 (converted)
T2 sequence (P21452 1-398): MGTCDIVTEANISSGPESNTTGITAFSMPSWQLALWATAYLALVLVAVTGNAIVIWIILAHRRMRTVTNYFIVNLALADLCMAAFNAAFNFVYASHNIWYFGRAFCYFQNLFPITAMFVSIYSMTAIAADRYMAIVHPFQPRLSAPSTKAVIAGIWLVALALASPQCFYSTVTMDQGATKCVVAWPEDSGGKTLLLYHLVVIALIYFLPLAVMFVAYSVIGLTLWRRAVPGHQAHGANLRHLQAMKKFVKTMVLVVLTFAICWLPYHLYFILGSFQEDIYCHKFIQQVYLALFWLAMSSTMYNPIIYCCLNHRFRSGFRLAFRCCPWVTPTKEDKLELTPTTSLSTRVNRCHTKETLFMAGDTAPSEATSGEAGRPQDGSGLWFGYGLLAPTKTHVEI
Method: [The source words this procedure for another target and reports this target under the same test.] as §1, §2, §3

| SMILES | IC50 [1] | IC50 [2] | IC50 [3] |
| --- | --- | --- | --- |
| CC(C)(C)C(=O)N1CCC2(CC1)CCN([C@H]1CCN(C(=O)c3cc(C(F)(F)F)cc(C(F)(F)F)c3)[C@H](Cc3ccccc3)C1)CC2 [Compound 7] | > 10 µM | 115 nM | > 10 µM |
| O=C(C=Cc1ccoc1)N1CCC2(CC1)CCN([C@H]1CCN(C(=O)c3cc(C(F)(F)F)cc(C(F)(F)F)c3)[C@H](Cc3ccccc3)C1)CC2 [Compound 85] | > 10 µM | 309 nM | > 10 µM |
| O=C(c1cc(C(F)(F)F)cc(C(F)(F)F)c1)N1CC[C@H](N2CCC3(CC2)CCN(S(=O)(=O)c2ccc(F)cc2)CC3)C[C@H]1Cc1ccccc1 [Compound 116] | 0.708 µM | 52.5 nM | > 10 µM |
| O=C(c1cc2ccccc2o1)N1CCC2(CC1)CCN([C@H]1CCN(C(=O)c3cc(C(F)(F)F)cc(C(F)(F)F)c3)[C@H](Cc3ccccc3)C1)CC2 [Compound 64] | > 10 µM | 891 nM | > 10 µM |
| O=C(c1ccc2c(c1)OCO2)N1CCC2(CC1)CCN([C@@H]1CCN(C(=O)c3cc(C(F)(F)F)cc(C(F)(F)F)c3)[C@H](Cc3ccccc3)C1)CC2 [Compound 63] | > 10 µM | 437 nM | 7.94 µM |
| O=C(c1cc(C(F)(F)F)cc(C(F)(F)F)c1)N1CCC(N2CCC3(CC2)CCN(S(=O)(=O)c2cccs2)CC3)CC1Cc1ccccc1 (stereo not drawn) [Compound 92] | 0.339 µM | 17 nM | 1.32 µM |
| O=C(c1cc(C(F)(F)F)cc(C(F)(F)F)c1)N1CC[C@H](N2CCC3(CC2)CCN(S(=O)(=O)c2c(Cl)sc(Cl)c2Br)CC3)C[C@H]1Cc1ccccc1 [Compound 99] | > 10 µM | 562 nM | > 10 µM |
| O=C1OC(CC(=O)N2CCC3(CC2)CCN([C@H]2CCN(C(=O)c4cc(C(F)(F)F)cc(C(F)(F)F)c4)[C@H](Cc4ccccc4)C2)CC3)c2ccccc21 (stereo partly drawn) [Compound 82] | 8.91 µM | 46.8 nM | 2 µM |
| O=C(c1cc(C(F)(F)F)cc(C(F)(F)F)c1)N1CC[C@H](N2CCC3(CC2)CCN(S(=O)(=O)c2cc(Cl)c(Cl)cc2Cl)CC3)C[C@H]1Cc1ccccc1 [Compound 115] | > 10 µM | 490 nM | > 10 µM |
| O=C1CC2(CCN1CC1CC1)CCN(C1CCN(C(=O)c3cc(C(F)(F)F)cc(C(F)(F)F)c3)C(Cc3ccccc3)C1)CC2 (stereo not drawn) [Compound 195] | 1.45 µM | 53.7 nM | ~1.41 µM |
| O=C1CCC(C(=O)N2CCC3(CC2)CCN([C@H]2CCN(C(=O)c4cc(C(F)(F)F)cc(C(F)(F)F)c4)[C@H](Cc4ccc(F)c(F)c4)C2)CC3)N1 (stereo partly drawn) [Compound 139] | 0.955 µM | 38.9 nM | 2.4 µM |
| O=C(C1CCOC1)N1CCCC2(CCN([C@H]3CCN(C(=O)c4cc(C(F)(F)F)cc(C(F)(F)F)c4)[C@H](Cc4ccccc4)C3)CC2)C1 (stereo partly drawn) [Compound 174] | > 10 µM | 40.7 nM | 6.92 µM |
| O=C(C1CC1)N1CCCC2(CCN([C@H]3CCN(C(=O)c4cc(C(F)(F)F)cc(C(F)(F)F)c4)[C@H](Cc4ccccc4)C3)CC2)C1 [Compound 172] | 5.75 µM | 93.3 nM | 6.92 µM |
| Cc1nnsc1C(=O)N1CCC2(CC1)CCN(C(=O)[C@H]1CCN(C(=O)c3cc(C(F)(F)F)cc(C(F)(F)F)c3)[C@H](Cc3ccccc3)C1)CC2 [Compound 190] | 3.55 µM | 6.17 nM | 1.62 µM |
| O=C(C1CCCC1)N1CCC2(CC1)CCN([C@@H]1CCN(C(=O)c3cc(C(F)(F)F)cc(C(F)(F)F)c3)[C@H](Cc3ccccc3)C1)CC2 [Compound 18] | 4.68 µM | 20.4 nM | 1.2 µM |
| Cc1ccccc1S(=O)(=O)N1CCC2(CCN([C@H]3CCN(C(=O)c4cc(C(F)(F)F)cc(C(F)(F)F)c4)[C@H](Cc4ccccc4)C3)CC2)CC1 [Compound 103] | 1.51 µM | 50.1 nM | 2.51 µM |

| SMILES | IC50 [1] | IC50 [2] | IC50 [3] |
| --- | --- | --- | --- |
| N#Cc1ccc(S(=O)(=O)N2CCC3(CCN(C4CCN(C(=O)c5cc(C(F)(F)F)cc(C(F)(F)F)c5)C(Cc5ccccc5)C4)CC3)CC2)cc1 (stereo not drawn) [Compound 119] | 1.58 µM | 66.1 nM | 1.07 µM |
| CC1CC1C(=O)N1CCC2(CC1)CCN([C@H]1CCN(C(=O)c3cc(C(F)(F)F)cc(C(F)(F)F)c3)[C@H](Cc3ccccc3)C1)CC2 (stereo partly drawn) [Compound 15] | 7.94 µM | 129 nM | 3.16 µM |
| CC1(C)OC(=O)CC1C(=O)N1CCC2(CC1)CCN([C@H]1CCN(C(=O)c3cc(C(F)(F)F)cc(C(F)(F)F)c3)[C@H](Cc3ccc(F)c(F)c3)C1)CC2 (stereo partly drawn) [Compound 138] | > 10 µM | 17.8 nM | 4.68 µM |
| O=C(C1CCOC1)N1CCC2(CC1)CCN([C@H]1CCN(C(=O)c3cc(C(F)(F)F)cc(C(F)(F)F)c3)[C@H](Cc3ccc(F)c(F)c3)C1)CC2 (stereo partly drawn) [Compound 137] | 1.7 µM | 27.5 nM | 3.47 µM |
| C/C(=C\C(=O)N1CCC2(CC1)CCN([C@H]1CCN(C(=O)c3cc(C(F)(F)F)cc(C(F)(F)F)c3)[C@H](Cc3ccccc3)C1)CC2)C(F)(F)F [Compound 86] | > 10 µM | 129 nM | > 10 µM |
| O=C(c1ccccc1Cl)N1CCC2(CC1)CCN([C@H]1CCN(C(=O)c3cc(C(F)(F)F)cc(C(F)(F)F)c3)[C@H](Cc3ccccc3)C1)CC2 [Compound 42] | 9.33 µM | 61.7 nM | 8.91 µM |
| O=C(c1ccsc1)N1CCC2(CC1)CCN([C@H]1CCN(C(=O)c3cc(C(F)(F)F)cc(C(F)(F)F)c3)[C@H](Cc3ccc(Cl)c(Cl)c3)C1)CC2 [Compound 133] | 4.9 µM | 53.7 nM | 3.72 µM |
| Cc1cc(=O)oc(C)c1C(=O)N1CCC2(CC1)CCN([C@H]1CCN(C(=O)c3cc(C(F)(F)F)cc(C(F)(F)F)c3)[C@H](Cc3ccccc3)C1)CC2 [Compound 47] | > 10 µM | 66.1 nM | ~10 µM |
| CC1CCCCC1C(=O)N1CCC2(CC1)CCN([C@@H]1CCN(C(=O)c3cc(C(F)(F)F)cc(C(F)(F)F)c3)[C@H](Cc3ccccc3)C1)CC2 (stereo partly drawn) [Compound 39] | 5.37 µM | 85.1 nM | 4.79 µM |
| O=C(Cn1cnnn1)N1CCC2(CC1)CCN([C@H]1CCN(C(=O)c3cc(C(F)(F)F)cc(C(F)(F)F)c3)[C@H](Cc3ccccc3)C1)CC2 [Compound 77] | > 10 µM | 45.7 nM | ~8.13 µM |
| Cc1cn(CC(=O)N2CCC3(CC2)CCN([C@H]2CCN(C(=O)c4cc(C(F)(F)F)cc(C(F)(F)F)c4)[C@H](Cc4ccccc4)C2)CC3)c(=O)[nH]c1=O [Compound 80] | > 10 µM | 29.5 nM | > 10 µM |
| O=C(c1ccc2nonc2c1)N1CCC2(CC1)CCN([C@H]1CCN(C(=O)c3cc(C(F)(F)F)cc(C(F)(F)F)c3)[C@H](Cc3ccccc3)C1)CC2 [Compound 68] | > 10 µM | 295 nM | 5.62 µM |
| O=C(c1ccsc1)N1CCCC2(CCN([C@H]3CCN(C(=O)c4cc(C(F)(F)F)cc(C(F)(F)F)c4)[C@H](Cc4ccccc4)C3)CC2)C1 [Compound 175] | > 10 µM | 15.5 nM | 4.47 µM |
| O=C(c1ccsc1)N1CCC2(CC1)CCN([C@H]1CCN(C(=O)c3cc(C(F)(F)F)cc(C(F)(F)F)c3)[C@H](Cc3ccc(F)c(F)c3)C1)CC2 [Compound 141] | 7.08 µM | 41.7 nM | 5.89 µM |
| O=C(c1cc(C(F)(F)F)cc(C(F)(F)F)c1)N1CC[C@H](N2CCC3(CC2)CCN(S(=O)(=O)c2cccc(Cl)c2)CC3)C[C@H]1Cc1ccccc1 [Compound 107] | 3.16 µM | 115 nM | 4.17 µM |
